Measurements reported in paper PMC2606621 (Journal of neurochemistry, 2008).
Where two headings read alike, the source gives them in different places.

Assays:
CB1 receptor = conditions: ref Hill et al., cited from earlier work
cannabinoid CB1 receptor = cannabinoid CB1 receptor (Rattus norvegicus, UniProt P20272); experiment: CB1 receptor binding assay; type: in vivo; conditions: for effect on Bmax of the CB1 receptor: imipramine alone
[1] = test system: endocannabinoids AEA and 2-AG; experiment: Plasma endocannabinoid content; type: in vivo, rat; conditions: imipramine 10 mg/kg, 21 days; p > 0.05
[2] = molecular target: T1, fatty acid amide hydrolase (FAAH) (Rattus norvegicus, UniProt P97612); experiment: Fatty acid amide hydrolase activity assay; type: in vivo; conditions: for effect on Vmax of FAAH: combination of CUS and imipramine, p < 0.05; for Km: read-out: binding affinity (Km) of fatty acid amide hydrolase for anandamide
T1 sequence (P97612 1-579): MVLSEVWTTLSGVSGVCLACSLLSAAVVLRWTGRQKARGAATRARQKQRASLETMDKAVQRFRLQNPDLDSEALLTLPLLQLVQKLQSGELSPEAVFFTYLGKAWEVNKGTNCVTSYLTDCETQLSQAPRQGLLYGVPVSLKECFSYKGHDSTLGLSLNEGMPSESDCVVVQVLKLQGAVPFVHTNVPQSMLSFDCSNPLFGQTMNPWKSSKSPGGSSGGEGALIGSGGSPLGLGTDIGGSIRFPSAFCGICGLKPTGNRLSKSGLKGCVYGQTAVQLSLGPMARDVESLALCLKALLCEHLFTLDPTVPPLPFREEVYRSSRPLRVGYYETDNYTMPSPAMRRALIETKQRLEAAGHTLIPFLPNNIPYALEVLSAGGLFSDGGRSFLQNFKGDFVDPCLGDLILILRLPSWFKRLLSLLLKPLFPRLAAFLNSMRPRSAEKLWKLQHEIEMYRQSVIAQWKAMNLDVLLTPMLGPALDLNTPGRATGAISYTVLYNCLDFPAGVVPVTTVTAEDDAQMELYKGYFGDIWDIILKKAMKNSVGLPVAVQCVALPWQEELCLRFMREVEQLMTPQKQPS

[3] = test system: endocannabinoids AEA and 2-AG; experiment: Brain tissue endocannabinoid content; conditions: imipramine alone; any brain region examined

cannabinoid CB1 receptor, sequence (P20272 whole entry): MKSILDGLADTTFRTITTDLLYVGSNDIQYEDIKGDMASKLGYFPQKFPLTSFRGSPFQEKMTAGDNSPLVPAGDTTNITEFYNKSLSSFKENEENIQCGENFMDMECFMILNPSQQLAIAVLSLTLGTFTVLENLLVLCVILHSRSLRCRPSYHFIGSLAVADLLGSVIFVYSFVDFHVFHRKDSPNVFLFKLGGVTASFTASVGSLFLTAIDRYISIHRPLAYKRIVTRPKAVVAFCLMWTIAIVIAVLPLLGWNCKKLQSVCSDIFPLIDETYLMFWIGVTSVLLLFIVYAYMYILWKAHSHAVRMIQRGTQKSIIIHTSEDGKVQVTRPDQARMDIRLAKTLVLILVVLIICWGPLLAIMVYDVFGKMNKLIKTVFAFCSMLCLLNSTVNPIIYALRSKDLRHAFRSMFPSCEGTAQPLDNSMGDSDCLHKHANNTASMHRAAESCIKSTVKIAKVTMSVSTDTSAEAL

SMILES: C[C@]12C[C@H](O)[C@H]3[C@@H](CCC4=CC(=O)CC[C@@]43C)[C@@H]1CC[C@@H]2C(=O)CO [corticosterone]
- effect on CB1 receptor binding and protein expression (CB1 receptor; hippocampus, 21 days administration, absence of stress, 2008a): comparable reduction

SMILES: CNCCCN1c2ccccc2CCc2ccccc21 [desipramine]
- effect on CB1 receptor binding (CB1 receptor; hippocampus of unstressed rats, 2006): up-regulation
- effect on CB1 receptor agonist binding site density (CB1 receptor; hypothalamus, unstressed rats, chronic treatment, 2006): increases

SMILES: CN(C)CCCN1c2ccccc2CCc2ccccc21 [imipramine]
- effect on Bmax of the CB1 receptor (increase) (cannabinoid CB1 receptor; amygdala, CUS and imipramine combined, p > 0.05): did not occur
- effect on Bmax of the CB1 receptor (cannabinoid CB1 receptor; amygdala, p < 0.05): increase
- effect on CB1 receptor agonist binding site density (Bmax) (cannabinoid CB1 receptor; hippocampus, imipramine 10 mg/kg, 21 days (ANOVA main effect)): unaffected
- effect on Bmax for [3H]CP55940 binding to the CB1 receptor (cannabinoid CB1 receptor; hypothalamus, CUS and imipramine together vs control, p > 0.05): no significant difference
- effect on CB1 receptor binding site density (Bmax) (cannabinoid CB1 receptor; midbrain, imipramine 10 mg/kg, 21 days, p < 0.05): significant reduction
- effect on agonist binding site density (Bmax) of the CB1 receptor (cannabinoid CB1 receptor; prefrontal cortex, imipramine 10 mg/kg, 21 days (ANOVA main effect)): no effect
- effect on Bmax of the CB1 receptor (reduction) (cannabinoid CB1 receptor; ventral striatum, CUS and imipramine concurrently, p > 0.05): not seen
- effect on Bmax of the CB1 receptor (cannabinoid CB1 receptor; ventral striatum, p < 0.01): significant reductions
- effect on plasma 2-AG content [1]: unaffected
- effect on plasma AEA content [1]: neither an effect
- effect on maximal hydrolytic activity (Vmax) of FAAH ([2]; imipramine alone, any brain region examined): no effects
- effect on Vmax of FAAH ([2]; midbrain): increased
- Km ([2]; Amygdala, CON/IMI (no stress, imipramine 10 mg/kg, 21 days)): 0.95 nM
- Km ([2]; Amygdala, CUS/IMI (21 days CUS + imipramine 10 mg/kg)): 0.53 nM
- Km ([2]; Hippocampus, CON/IMI (no stress, imipramine 10 mg/kg, 21 days)): 0.8 nM
- Km ([2]; Hippocampus, CUS/IMI (21 days CUS + imipramine 10 mg/kg)): 0.71 nM
- Km ([2]; Hypothalamus, CON/IMI (no stress, imipramine 10 mg/kg, 21 days)): 0.44 nM
- Km ([2]; Hypothalamus, CUS/IMI (21 days CUS + imipramine 10 mg/kg)): 0.55 nM
- Km ([2]; Midbrain, CON/IMI (no stress, imipramine 10 mg/kg, 21 days)): 0.6 nM
- Km ([2]; Midbrain, CUS/IMI (21 days CUS + imipramine 10 mg/kg)): 0.61 nM
- Km ([2]; Prefrontal Cortex, CON/IMI (no stress, imipramine 10 mg/kg, 21 days)): 0.65 nM
- Km ([2]; Prefrontal Cortex, CUS/IMI (21 days CUS + imipramine 10 mg/kg)): 0.46 nM
- Km ([2]; Ventral Striatum, CON/IMI (no stress, imipramine 10 mg/kg, 21 days)): 0.37 nM
- Km ([2]; Ventral Striatum, CUS/IMI (21 days CUS + imipramine 10 mg/kg)): 0.69 nM
- effect on Vmax of FAAH ([2]; ventral striatum): increased
- effect on tissue AEA content [3]: no effect
